Experimental data published in patent US10898473B2, “Combinations to treat cancer” (EVOL SCIENCE LLC, priority 2016, dated 2021).

Columns and labels:
[1] = system: BxPC3M1 cells; assay: Colony formation assay; assay type: cell-based
Method: (§1) For colony formation assays, 400 cells per well were seeded into 24-well plates on day 0. Cells were treated with DMSO or gemcitabine at various doses on day 1 for 24 hours. Gemcitabine was washed out on day 2, vemurafenib, dabrafenib, and methotrexate was added. On day 4, drugs added on day 2 was washed out. Cells were allowed to grow for a subsequent 7 days before being fixed (10% methanol+10% acetic acid) and stained with crystal violet (0.4% in 20% ethanol) for quantitation as previously described (Bhattacharjee et al., 2014).

[2] = system: NCI-H2122 cells; assay: Colony formation assay; assay type: cell-based
Method: as §1

[3] = system: SK-MEL-28 cells; assay: Colony formation assay; assay type: cell-based
Method: as §1

[4] = system: SK-MEL-28VR1 cells; assay: Colony formation assay; assay type: cell-based
Method: as §1

[5] = system: pancreatic cancer patient-derived and ATCC established cell lines; assay: 3D-spheroidal growth assay (CTG3D cell viability); assay type: cell-based; conditions: gemcitabine day 2, washed out, B-raf inhibitor day 3, viability day 5; FIG. 15
Method: FIG. 15 illustrates gemcitabine sensitized pancreatic cancer patient-derived and ATCC established cell lines to vemurafenib or dabrafenib in 3D-spheroidal growth assays: 20,000 cells plated (Corning 4515 spheroid plates) on day 0, Gemcitabine added on day 2 (all spheroids at least 500 μm in diameter), gemcitabine washed out and B-raf inhibit was added on day 3, CTG3D cell viability assays on day 5 (n=2).
ATCC established cell lines to vemurafenib or dabrafenib in 3D-spheroidal growth assays. 20,000 cells were plated to grow in a 3D-spheroidal growth assays. (Corning 4515 spheroid plates). Two days later when all spheroids were at least 500 μm in diameter, gemcitabine was added 2 days after plating. Gemcitabine was washed out the following day and the B-raf inhibitor was added on day 3 (3 days post-plating). CTG3D cell viability assays were performed 5-days post plating (i.e, on day 5, n=2). […] This was a surprising and unexpected effect that these cells could be killed with this combination.

[6] = system: BxPC3M1, BxPC3, Panc1, and MiaPaca2; assay: Cell proliferation assay; assay type: cell-based; conditions: vemurafenib 10 μM; all 4 cell lines (WT BRAF)
Method: FIGS. 9A-9H illustrate vemurafenib induced cell proliferation and serine synthesis in pancreatic cancer cell lines. FIG. 9A: Cell proliferation assay of BxPC3 cells treated with vemurafenib (10 μM). 100000 cells plated on day 0. FIG. 9B: Cell proliferation assay of BxPC3M1 cells treated with vemurafenib (10 μM). 100000 cells plated on day 0. FIG. 9C: Cell proliferation assay of Panc1 cells treated with vemurafenib (10 μM). 100000 cells plated on day 0. FIG. 9D: Cell proliferation assay of MiaPaca2 cells treated with vemurafenib (10 μM). 100000 cells plated on day 0. FIG. 9E: Mass spectrometry: PHGDH protein expression in pancreatic cancer cells treated with DMSO or vemurafenib (10 μM) (n=3). FIG. 9F: Mass spectrometry: PSAT1 protein expression in pancreatic cancer cells treated with DMSO or vemurafenib (10 μM) (n=3). FIG. 9G: Mass spectrometry: PSPH protein expression in pancreatic cancer cells treated with DMSO or vemurafenib (10 μM) (n=3). FIG. 9H: Mass spectrometry: SARS protein expression in pancreatic cancer cells treated with DMSO or vemurafenib (10 μM) (n=3).
Next, we tested the effect of vemurafenib treatment on pancreatic cancer cell proliferation. All 4 of the cell lines (BxPC3M1, BxPC3, Panc1, and MiaPaca2) tested express WT BRAF. […] As expected, PHGDH, PSAT1, PSPH, and SARS protein abundance increased in all 4 cell lines tested (FIGS. 9E, 9F, 9G, and 9H). […]

[7] = system: BxPC3M1, BxPC3, Panc1, and MiaPaca2; assay type: cell-based, Homo sapiens; conditions: vemurafenib 10 μM vs DMSO; all 4 cell lines
[8] = system: PHGDH in SK-MEL-28VR1 cells; assay: Western blot of PHGDH protein expression; assay type: cell-based; conditions: following vemurafenib treatment; FIG. 5B
Method: Cells were harvested, washed in PBS and lysed in NP40 lysis buffer (1% NP40/PBS/10% glycerol) with protease and phosphatase inhibitors. Protein concentrations were determined with Total-Protein-Assay-kit (ITSI Biosciences; K-0014-20) and then SDS sample buffer was added to the lysates. 50 ug of boiled lysates was separated by SDS-PAGE and then transferred onto Immobilon P membranes (Millipore; IPVH00010).

[9] = system: SK-MEL-28VR1 vs SK-MEL-28 cells; conditions: protein abundance with vemurafenib treatment, SK-MEL-28VR1 compared to parental SK-MEL-28
[10] = system: SK-MEL-28VR1 cells; assay: Mass spectrometry protein abundance
Method: (§2) 5 μL of sample were loaded onto a C18 trap column (PepMap100; 300-μm i.d.×5 mm, 5-μm particle size, 100 Å; Thermo Fisher Scientific) at a flow rate of 10 μL min^−1. […] The runs were analyzed using Progenesis-QI for Proteomics (Nonlinear dynamics). The chromatograms were aligned and the MS/MS data was extracted for peptide identification using Mascot (Matrix Science, London, UK; version 2.5.1). Mascot was set up to search the cRAP database, the custom database including the QMC peptide sequence and SwissProt database (selected for Homo sapiens) assuming the digestion enzyme trypsin. Mascot was searched with a fragment ion mass tolerance of 0.06 Da and a parent ion tolerance of 15 PPM. Deamidated of asparagine and glutamine, oxidation of methionine, acetyl of lysine, propionyl of lysine and carbamidomethylation of cysteine were specified in Mascot as variable modifications. The peptides identified using a FDR<1% were extracted and imported back into Progenesis for assignment of the peaks. Only proteins with at least 2 unique peptides and a Mascot score of 20 were used for further analysis. The peptide and protein quantification used a synthetic control peptide for normalization across the samples.
(§3) All proteomic trend plots were constructed using the Evol Science Software suite (ESSv1.0). […]

[11] = system: SK-MEL-28 cells; assay: Mass spectrometry protein abundance
Method: as §2, §3

With CC(C)(C)c1nc(-c2cccc(NS(=O)(=O)c3c(F)cccc3F)c2F)c(-c2ccnc(N)n2)s1 [dabrafenib, Dabrafenib] the sensitization to gemcitabine ([1]; dabrafenib 1 μM + variable doses of gemcitabine, FIG. 11A) was “sensitized” and the sensitization to gemcitabine ([2]; dabrafenib 1 μM + variable doses of gemcitabine, FIG. 11B) was “sensitized”.
In the case of Nc1ccn([C@@H]2O[C@H](CO)[C@@H](O)C2(F)F)c(=O)n1 [gemcitabine], the “sensitization over single vemurafenib treatments” value ([3]; gemcitabine 50 nM + variable doses of vemurafenib, FIG. 7A) is reported as “did not sensitize”, the sensitization to vemurafenib ([4]; gemcitabine 50 nM + variable doses of vemurafenib, FIG. 7B) is reported as “significantly sensitized” and the sensitization to dabrafenib ([4]; gemcitabine 50 nm + variable doses of dabrafenib, FIG. 11C) is reported as “sensitized”. The “effect of gemcitabine pre-treatment followed by B-raf inhibitors on the cells” value [5] was “leads to cell death” and the “sensitization to vemurafenib or dabrafenib” value [5] was “sensitized”.
CN(Cc1cnc2nc(N)nc(N)c2n1)c1ccc(C(=O)N[C@@H](CCC(=O)O)C(=O)O)cc1 [methotrexate] was tested, and the “cell death compared to gemcitabine+vemurafenib without methotrexate” value ([1]; methotrexate (75 nM) + gemcitabine + vemurafenib (1 μM), FIG. 10A) was “increased cell death”, the “cell death compared to gemcitabine+vemurafenib without methotrexate” value ([2]; methotrexate (75 nM) + gemcitabine + vemurafenib (1 μM), FIG. 10B) was “increased cell death” and the “killing by methotrexate/vemurafenib treatments” value ([3]; methotrexate 75 nM + differential doses of vemurafenib, FIG. 6C) was “no significant killing”. For the same compound, the “killing of cells following vemurafenib treatment” value ([4]; methotrexate 75 nM + differential doses of vemurafenib, FIG. 6D) was “significantly enhanced” and the “cell death alongside the gemcitabine/vemurafenib combination” value ([4]; methotrexate (75 nM) + gemcitabine (50 nM) + vemurafenib, FIG. 7F) was “significantly enhanced”.
For CCCS(=O)(=O)Nc1ccc(F)c(C(=O)c2c[nH]c3ncc(-c4ccc(Cl)cc4)cc23)c1F [vemurafenib, Vemurafenib], the sensitization to gemcitabine ([1]; variable gemcitabine doses + vemurafenib 1 μM, FIG. 8A) was “significantly sensitized”, the cell death ([1]; vemurafenib 5 μM, serine depleted media (not with complete media), FIG. 10C) was > 50% and the sensitization to gemcitabine ([2]; vemurafenib 1 μM, FIG. 8C) was “sensitized”. For the same compound, the cell death ([4]; vemurafenib 2.5 μM and 5 μM, serine depletion (not with complete media), FIG. 6E) was > 50%, the cell proliferation [6] was “increased proliferation” and the “PHGDH, PSAT1, PSPH, and SARS protein abundance” value [7] was “increased”. The PHGDH levels [8] was “increased”, the “Fold differential, ASNS” value [9] was 8 fold and the “Fold differential, CYP51A1” value [9] was 8 fold. For the same compound, the “Fold differential, DUS2” value [9] was 7 fold, the “Fold differential, FAM129B” value [9] was 9 fold and the “Fold differential, KRT19” value [9] was 5 fold. The “Fold differential, LARS2” value [9] was 6 fold, the “Fold differential, MPHOSPH6” value [9] was 9 fold and the “Fold differential, MRPL13” value [9] was 2 fold. The “Fold differential, PDLIM7” value [9] was 9 fold, the “Fold differential, PHGDH” value [9] was 2 fold and the “Fold differential, PPP1R7” value [9] was 8 fold. For the same compound, the “Fold differential, PSAT1” value [9] was 8 fold, the “Fold differential, PSPH” value [9] was 5 fold and the “Fold differential, RUVBL1” value [9] was 3 fold. The “Fold differential, S100A11” value [9] was 8 fold, the “Fold differential, SARS” value [9] was 6 fold and the “Fold differential, SARS2” value [9] was 4 fold. For the same compound, the “Fold differential, SBDS” value [9] was 10 fold, the “Fold differential, SPATA20” value [9] was 12 fold and the “Fold differential, TXNDC17” value [9] was 2 fold. The “PHGDH, PSAT1, PSPH, SARS and SARS2 abundance” value ([10]; cells exposed to vemurafenib vs vehicle, data not shown) was “equal or higher abundances”, the “Cytoplasmic FAM129B abundance increase” value ([10]; vemurafenib treatment compared to vehicle treatment, FIG. 5A) was ~6 fold and the FAM129B abundance ([11]; in response to vemurafenib treatments, parental cells) was “decreased”. The “PHGDH, PSAT1, PSPH, SARS and SARS2 abundance” value ([11]; parental cells exposed to vemurafenib vs vehicle, data not shown) was “opposite trend”.
